Data: patent US9180114B2, “Neurodegenerative diseases and methods of modeling” (PRESIDENT AND FELLOWS OF HARVARD COLLEGE, priority 2008, dated 2015)

How the values were obtained:
[1] = system: Hb9::GFP human ES cell-derived motor neurons on SOD1G93A glia; assay: Survival of human ES cell-derived motor neurons co-cultured with SOD1G93A glia treated with prostaglandin D2 receptor antagonists; type: cell-based; conditions: for Hb9::GFP cells remaining (cell death / survival of motor neurons) on SOD1G93A glia: 10 days of treatment
mice = conditions: cited from earlier work; for induction of (cutaneous) vasodilation: agonist alone
[2] = system: Hb9::GFP human ES cell-derived motor neurons; assay: Survival of Hb9::GFP human ES cell-derived motor neurons co-cultured with non-transgenic (WT) glia treated with candidate factors; type: cell-based; conditions: 20 days of treatment
Description: After 24 hours, the cells had aggregated to form embryoid bodies (EBs), and the media was changed to remove debris by centrifuging the EBs and resuspending in fresh in human ES cell media without bFGF2 or plasmanate in low attachment 6-well plates. EBs were cultured as such for 13 more days, with half of the media changed every two days, and a complete media change every week. After 14 days, the EBs were induced toward a caudal and ventral identity using retinoic acid (1 μM, Sigma) and an agonist of the Shh signaling pathway (1 μM) in N2 media: 1:1 DMEM:F-12+Glutamate (Gibco), 10,000 units Penicillin and 1 mg/mL Streptomicin (Gibco), 1% N2 Supplement (Gibco), 0.2 mM ascorbic acid (Sigma-Aldrich), 0.16% D-(+)-Glucose (Sigma-Aldrich), BDNF (10 ng/ml, R&D Systems), for another 14 days. The EBs were then matured for a final 14 days in N2 media with GNDF (10 ng/mL, R&D Systems). After 42 days of differentiation, the EBs were dissociated. To dissociate the EBs, they were centrifuged at 1000 rpm for 5 min in a 15 ml falcon tube, and then washed once with PBS to eliminate residual media. The EBs were then incubated for 60 minutes at 37° C. in Earle's Balanced Salt Solution with 20 units of papain and 1000 units of Deoxyribonuclease I (Worthington Biochemical Corporation). EBs were triturated using a 2 mL serological pipette every 15-20 minutes during this incubation. When an almost single cell suspension was achieved, the cells were centrifuged for 5 minutes at 1000 RPM. […] These cells were then counted and plated on Poly-D-Lysine/Laminin CultureSlides (BD biosciences) or on a layer of primary glial cells. Depending on the experiment, motor neurons or interneurons were counted 10 or 20 days after plating.
Non-transgenic glia were individually pretreated for 1 day with either one of the three cytokines MCP2, Cxcl7, or Rantes; with GMFb; an agonist of SHH pathway; or with PGD2. […] Replicate cultures were individually maintained for 20 days in the presence of each of the 6 factors, fixed, and the numbers of GFP positive motor neurons quantified. […]

Molecule: O=C(O)CCCCCCC1C(=O)N(Cc2ccccc2)C(=O)N1NCC(O)C1CCCCC1 (stereo not shown) [BWA868C]
- Hb9::GFP cells remaining (cell death / survival of motor neurons) on SOD1G93A glia [1]: significantly reduced cell death
- Hb9::GFP cells remaining (cell death / survival of motor neurons) on SOD1G93A glia ([1]; listed as BW868C): significantly reduced neuronal cell death

Molecule: CS(=O)(=O)c1cc(F)cc2c3c(n(Cc4ccc(Cl)cc4)c12)[C@@H](CC(=O)O)CC3 [MK 0524]
- increase in the number of GFP positive neurons relative to untreated neurons plated on the same glia [1]: 32%
- neuronal cell death for motor neurons cultured on SOD1G93A glia [1]: significantly reduced neuronal cell death
- blockade of PGD2- and NA-induced vasodilation (mice; PGD2 or nicotinic acid (NA) challenge): blocked both PGD2- and NA-induced vasodilation

Molecule: CCCCC[C@H](O)/C=C/[C@H]1C(=O)C[C@H](O)[C@@H]1C/C=C\CCCC(=O)O [PGD2, prostaglandin D2]
- number of motor neurons compared to the control condition ([2]; WT glia pretreated 1 day, 10 μM): 19%+/−2%

Molecule: O=C(O)CCCCCCC1C(=O)NC(=O)N1CCC(O)C1CCCCC1 (stereo not shown) [BW245C]
- induction of (cutaneous) vasodilation (mice): induced vasodilation

Molecule: CCCCCC(=O)CCC1C(=O)CC(O)C1C/C=C\CCCC(=O)O (stereo not shown) [DK-PGD2, 13,14-dihydro-15-keto-PGD2]
- induction of (cutaneous) vasodilation (mice): did not induce cutaneous vasodilation

B1: GMFb: glial maturation factor beta, induces a pro-inflammatory state in astrocytes (protein, UniProt Q9CQI3 2-142, looked up)
Glia maturation factor beta: SESLVVCDVAEDLVEKLRKFRFRKETHNAAIIMKIDKDERLVVLDEELEGVSPDELKDELPERQPRFIVYSYKYQHDDGRVSYPLCFIFSSPVGCKPEQQMMYAGSKNKLVQTAELTKVFEIRNTEDLTEEWLREKLGFFH
- number of human ES cell derived motor neurons compared to the control condition ([2]; non-transgenic (WT) glia pretreated 1 day, 250 ng/ml): 95%+/−9%

B2: Mcp2: cytokine over expressed in mutant glia (protein, UniProt Q9Z121 24-97, looked up)
C-C motif chemokine 8: GPDKAPVTCCFHVLKLKIPLRVLKSYERINNIQCPMEAVVFQTKQGMSLCVDPTQKWVSEYMEILDQKSQILQP
- number of GFP positive motor neurons compared to the control condition ([2]; non-transgenic (WT) glia pretreated 1 day, 100 ng/ml): 103%+/−8%
